Our source for the EC50 values is ChEMBL document CHEMBL5729275 (2022).

Bounds are passed on as bounds.

This assay in a line: RSV-A Assay : Hep-2 cells, (originally derived from tumors grown in irradiated-cortisonised weanling rats that had been injected with epidermoid carcinoma tissue from a person's larynx, but later found to be indistinguishable from HeLa cells by PCR DNA analysis), were used for the culturing of genotype A, “Long” strain RSV. Flasks were inoculated with RSV and viral stocks were collected once cytopathic effect (CPE) was greater than 90%. Viral stocks in 25% sucrose media were snap frozen using liquid nitrogen to increase viral stability. Viral stock titers were quantified by tissue culture infectious dose 50% (TCID50) using 8,000 cells per well and 3-fold viral dilutions across a 96-well plate, cultured for 4 days. Viral stock titers were also quantified by a plaque forming unit assay, as described elsewhere.Following extensive parameter testing, the final assay is run as follows: Hep-2 cells are seeded into the inner 60 wells of a 96-well plate at 8,000 cells per well in a volume of 50 μL using Growth Media (DMEM without phenol red, 1% L-Glut, 1% Penn/Strep, 1% nonessential amino acids, 10% heat-inactivated FBS). 2-fold serial dilutions of control and test compounds are added to the wells in duplicate in a total volume of 25 μL. Viral stock is then added to the wells at a multiplicity of infection (MOI) of 0.1 in a volume of 25 μL, bringing the total volume of each well to 100 μL. The MOI is calculated using the PFU/mL, or TCID50 if unavailable. Each 96-well plate has a control column of 6 wells with cells and virus but no compound (negative control, max CPE), a column with cells but no compound or virus (positive control, minimum CPE), and a column with no cells or virus or compound (background plate/reagent control). The control wells with cells but no virus are given an additional […], of growth media containing an equal quantity of sucrose as those wells receiving the viral stock in order to keep consistent in media and volume conditions. The outer wells of the plate are filled with 125 μL of moat media (DMEM, 1% Penn/Strep) to act as a thermal and evaporative moat around the test wells. Following a 5-day incubation period, the plates are read using ATPlite (50 uL added per well), which quantifies the amount of ATP (a measure of cell health) present in each well. Assay plates are read using the Envision luminometer.
Regarding `COc1cc(C(=O)NC[C@](C)(O)c2cc3c(c(-c4ccc(F)cc4)n2)OC[C@@]3(N)C(F)(F)F)ccc1OC1CC1`, the EC50 (as a rule, the concentration at which the effect is half-maximal) is below 200 nM. The result for `COC[C@](O)(CNC(=O)c1ccc(OC2CC2)c(OC)c1)c1cc2c(c(-c3ccc(F)cc3)n1)OC[C@@]2(N)C(F)(F)F` reads below 200 nM; that for `COc1cc(C(=O)NC[C@](O)(c2cc3c(c(-c4ccc(F)cc4)n2)OC[C@@]3(N)C(F)(F)F)C(F)(F)F)nc2ccccc12`, above 200 nM; that for `COc1cc(C(=O)NC[C@](O)(c2cc3c(c(-c4ccc(F)cc4)n2)OC[C@]3(N)C(F)(F)F)C(F)(F)F)ccc1OCCO`, above 200 nM.

Regarding `COc1cccc2cc(C(=O)NC[C@](O)(c3cc4c(c(-c5ccc(F)cc5)n3)OC[C@@]4(N)C(F)(F)F)C(F)(F)F)cnc12`, the EC50 was above 200 nM. Next, `N[C@@]1(C(F)(F)F)COc2c1cc([C@@](O)(CNC(=O)c1cc(OC3CC3)c3ncccc3c1)C1COC1)nc2-c1ccc(F)cc1`: above 200 nM; `Nc1nc2c(F)cc(C(=O)NC[C@](O)(c3cc4c(c(-c5ccc(F)cc5)n3)OC[C@@]4(N)C(F)(F)F)C3CC3)cc2s1`: below 200 nM; `COc1ccc2nc(C(=O)NC[C@](O)(c3cc4c(c(-c5ccc(F)cc5)n3)OC[C@@]4(N)C(F)(F)F)C(F)(F)F)cc(OC)c2c1`: above 200 nM. Next, `COc1cc(C(=O)NC[C@H](O)c2cc3c(c(-c4ccc(F)cc4)n2)OC[C@@]3(N)C(F)(F)F)ccc1OC1CC1`: above 200 nM. Next, `COc1cc(C(=O)NC[C@](O)(c2cc3c(c(-c4ccc(F)cc4)n2)OC[C@@]3(N)C(F)(F)F)C2CC2)cc2cccnc12`: below 200 nM; `C[C@](O)(CNC(=O)c1ccc(OC2CC2)c(OC2CC2)c1)c1cc2c(c(-c3ccc(F)c(F)c3)n1)OC[C@@]2(N)C(F)(F)F`: below 200 nM; `Cc1ccc2cc(C(=O)NC[C@](O)(c3cc4c(c(-c5ccc(F)cc5)n3)OC[C@@]4(N)C(F)(F)F)C3CC3)cc(OC3CC3)c2n1`: below 200 nM.

As to `N[C@@]1(C(F)(F)F)COc2c1cc([C@@](O)(CNC(=O)c1cc(OC3CC3)c3nn(C4CC4)cc3c1)C1CC1)nc2-c1ccc(F)cc1`, the EC50 is below 200 nM.

For the molecule `COc1cc(C(=O)NC[C@](O)(c2cc3c(c(-c4ccc(F)cc4)n2)OC[C@@]3(N)C(F)(F)F)C(F)(F)F)cc(F)c1OC1CC1`, the EC50 is above 200 nM. `COC(=O)N[C@@]1(C(F)(F)F)COc2c1cc([C@@](C)(O)CNC(=O)c1ccc(OC3CC3)c(OC)c1)nc2-c1ccc(F)cc1`: the EC50 is below 200 nM.

`N[C@@]1(C(F)(F)F)COc2c1cc([C@@](O)(CNC(=O)c1cc(OC3CC3)c3c(ccc[n+]3[O-])c1)C1CC1)nc2-c1ccc(F)cc1`: the EC50 is above 200 nM. For the molecule `COc1cc(C(=O)NC[C@](O)(c2cc3c(c(-c4ccc(F)cc4)n2)OC[C@]3(N)C(F)(F)F)C(F)(F)F)ccc1OC1CC1`, the EC50 is below 200 nM.

Take `COc1cc(C(=O)NC[C@](O)(c2cc3c(c(-c4ccc(F)cc4)n2)OC[C@@]3(N)C(F)(F)F)C(F)(F)F)ccc1OCCO`: the EC50 was above 200 nM. `COc1cc(C(=O)NC[C@](O)(c2cc3c(c(-c4ccc(F)cc4)n2)OC[C@@]3(N)C(F)(F)F)C(C)(C)C)ccc1OC1CC1`: the EC50 is above 200 nM. Next, `N[C@@]1(C(F)(F)F)COc2c1cc([C@@](O)(CNC(=O)c1ccc(OC3CC3)c(OC3CC3)c1)C1CC1)nc2-c1ccc(F)c(Cl)c1`: below 200 nM. Take `COc1cc(C(=O)NC[C@@](O)(c2cc3c(c(-c4ccc(F)cc4)n2)OC[C@]3(N)C(F)(F)F)C(F)(F)F)ccc1OCCO`: the EC50 was above 200 nM.

In the case of `COc1cc(C(=O)NC[C@](C)(O)c2cc3c(c(-c4ccc(F)cc4)n2)OC[C@@]3(NS(=O)(=O)C(C)(C)C)C(F)(F)F)cc2cccnc12`, the EC50 is above 200 nM. For `COc1cc(C(=O)NC[C@](O)(c2cc3c(c(-c4ccc(F)c(F)c4)n2)OC[C@@]3(N)C(F)(F)F)C2CC2)ccc1OC1CC1`, the EC50 is below 200 nM. As to `Nc1nc2ccc(C(=O)NC[C@](O)(c3cc4c(c(-c5ccc(F)cc5)n3)OC[C@@]4(N)C(F)(F)F)C3CC3)cc2s1`, the EC50 was below 200 nM.

`C[C@](O)(CNC(=O)c1ccc(OC2CC2)c(OC2CC2)c1)c1cc2c(c(-c3ccc(F)c(Cl)c3)n1)OC[C@@]2(N)C(F)(F)F`: the EC50 is below 200 nM. Next, `COc1cc(C(=O)NC[C@](O)(c2cc3c(c(-c4ccc(F)cc4)n2)OC[C@@]3(N)C(F)(F)F)C2CC2)cc2sc(N)nc12`: below 200 nM; `COc1cc(C(=O)NC[C@@](O)(c2cc3c(c(-c4ccc(F)cc4)n2)OC[C@]3(N)C(F)(F)F)C(F)(F)F)ccc1OC1CC1`: above 200 nM; `COc1ccc(C(=O)NC[C@](O)(c2cc3c(c(-c4ccc(F)cc4)n2)OC[C@@]3(N)C(F)(F)F)C(F)(F)F)cc1OC`: above 200 nM. Next, `C[C@](O)(CNC(=O)c1cc(OC2CC2)c2ncccc2c1)c1cc2c(c(-c3ccc(F)cc3)n1)OC[C@@]2(N)C(F)(F)F`: below 200 nM; `Cn1cc2cc(C(=O)NC[C@](O)(c3cc4c(c(-c5ccc(F)cc5)n3)OC[C@@]4(N)C(F)(F)F)C3CC3)cc(OC3CC3)c2n1`: below 200 nM. With `COc1cc(C(=O)NC[C@@](O)(c2cc3c(c(-c4ccc(F)cc4)n2)OC[C@@]3(N)C(F)(F)F)C(F)(F)F)ccc1OC1CC1`, the EC50 was above 200 nM. Next, `COc1cc(C(=O)NC[C@](O)(c2cc3c(c(-c4ccc(F)cc4)n2)OC[C@@]3(N)C(F)(F)F)C2COC2)ccc1OC1CC1`: above 200 nM; `COC(=O)N[C@@]1(C(F)(F)F)COc2c1cc([C@@](O)(CNC(=O)c1ccc(OC3CC3)c(OC)c1)C(F)(F)F)nc2-c1ccc(F)cc1`: above 200 nM; `COc1cc(C(=O)NC[C@](O)(c2cc3c(c(-c4ccc(F)cc4)n2)OC[C@@]3(N)C(F)(F)F)C2CC2)ccc1OC1CC1`: below 200 nM. The result for `N[C@@]1(C(F)(F)F)COc2c1cc([C@@](O)(CNC(=O)c1cc(OC3CC3)c3[nH]c(=O)ccc3c1)C1CC1)nc2-c1ccc(F)cc1` reads above 200 nM; that for `COc1cc(C(=O)NC[C@](O)(c2cc3c(c(-c4ccc(F)cc4)n2)OC[C@@]3(N)C(F)(F)F)C(F)(F)F)ccc1OCC(C)C`, above 200 nM; that for `COc1cc(C(=O)NC[C@](O)(c2cc3c(c(-c4ccc(F)cc4)n2)OC[C@@]3(NC(=O)COC(C)=O)C(F)(F)F)C(F)(F)F)ccc1OC1CC1`, below 200 nM. The result for `COc1cc(C(=O)NC[C@](O)(c2cc3c(c(-c4ccc(F)cc4)n2)OC[C@@]3(N)C(F)(F)F)C(F)(F)F)ccc1OC1CC1` reads below 200 nM; that for `N[C@@]1(C(F)(F)F)COc2c1cc([C@@](O)(CNC(=O)c1cc(OC3CC3)c3nn(C4CC4)cc3c1)C1CC1)nc2-c1ccc(F)c(Cl)c1`, below 200 nM; that for `N[C@@]1(C(F)(F)F)COc2c1cc([C@](O)(CO)CNC(=O)c1cc(OC3CC3)c3ncccc3c1)nc2-c1ccc(F)cc1`, above 200 nM. Regarding `CC(C)(C)S(=O)(=O)N[C@@]1(C(F)(F)F)COc2c1cc([C@@](C)(O)CNC(=O)c1cc(OC3CC3)c3ncccc3c1)nc2-c1ccc(F)cc1`, the EC50 is above 200 nM. The result for `N[C@@]1(C(F)(F)F)COc2c1cc([C@@](O)(CNC(=O)c1cc(OC3CC3)c3ncccc3c1)C1CC1)nc2-c1ccc(F)cc1` reads below 200 nM. Next, `C[C@](O)(CNC(=O)c1cc(OC2CC2)c2ncccc2c1)c1cc2c(c(-c3ccc(F)c(Cl)c3)n1)OC[C@@]2(N)C(F)(F)F`: above 200 nM; `COc1cc(C(=O)NC[C@](O)(c2cc3c(c(-c4ccc(F)c(Cl)c4)n2)OC[C@@]3(N)C(F)(F)F)C2CC2)ccc1OC1CC1`: below 200 nM; `COc1cc(C(=O)NC[C@](C)(O)c2cc3c(c(-c4ccc(F)cc4)n2)OC[C@@]3(N)C(F)(F)F)cc2cccnc12`: below 200 nM. Consider `COc1cc(C(=O)NC[C@](O)(c2cc3c(c(-c4ccc(F)cc4)n2)OC[C@@]3(NC(=O)CO)C(F)(F)F)C(F)(F)F)ccc1OC1CC1`, for which the EC50 is below 200 nM. Consider `N[C@@]1(C(F)(F)F)COc2c1cc([C@@](O)(CNC(=O)c1ccc(OC3CC3)c(OC3CC3)c1)C1CC1)nc2-c1ccc(F)c(F)c1`, for which the EC50 is below 200 nM. Turning to `Cn1cc2cc(C(=O)NC[C@](O)(c3cc4c(c(-c5ccc(F)cc5)n3)OC[C@@]4(N)C(F)(F)F)C3CC3)cc(F)c2n1`, the EC50 is below 200 nM.

On to `COC[C@](O)(CNC(=O)c1cc(OC2CC2)c2ncccc2c1)c1cc2c(c(-c3ccc(F)cc3)n1)OC[C@@]2(N)C(F)(F)F`, for which the EC50 is below 200 nM. Regarding `COc1cc(C(=O)NC[C@](C)(O)c2cc3c(c(-c4ccc(F)cc4)n2)OC[C@@]3(NC(=N)NC#N)C(F)(F)F)ccc1OC1CC1`, the EC50 was below 200 nM. In the case of `COc1cc(C(=O)NC[C@@](O)(CF)c2cc3c(c(-c4ccc(F)cc4)n2)OC[C@@]3(N)C(F)(F)F)ccc1OC1CC1`, the half-maximal effective concentration (EC50) was below 200 nM. As for `C[C@](O)(CNC(=O)c1ccc(OC2CC2)c(-c2cccnc2)c1)c1cc2c(c(-c3ccc(F)cc3)n1)OC[C@@]2(N)C(F)(F)F`, the EC50 is below 200 nM.

With `COc1cc(C(=O)NC[C@](O)(c2cc3c(c(-c4ccc(F)cc4)n2)OC[C@@]3(N)C(F)(F)F)C2CC2)cc2cn(C)nc12`, the EC50 is below 200 nM. The result for `COc1cc(F)c(C(=O)NC[C@](O)(c2cc3c(c(-c4ccc(F)cc4)n2)OC[C@@]3(N)C(F)(F)F)C(F)(F)F)cc1OC` reads above 200 nM. For the molecule `N[C@@]1(C(F)(F)F)COc2c1cc([C@@](O)(CNC(=O)c1ccc(OC3CC3)c(OC3CC3)c1)C1CC1)nc2-c1ccc(F)cc1`, the half-maximal effective concentration (EC50) is below 200 nM. With `N[C@@]1(C(F)(F)F)COc2c1cc([C@@](O)(CNC(=O)c1cc(OC3CC3)c3nc(Cl)ccc3c1)C1CC1)nc2-c1ccc(F)cc1`, the EC50 was below 200 nM.
